The source of these data is patent publication US8445532B2, “Use of phthalide derivatives” (priority 2005, dated 2013).

Converted amounts (≈) assume the structure as drawn. Like-named read-outs stand apart in the source and are kept apart here.

Holding throughout (type): cell-based, human
One experiment deals with MCF-7/Adr. Description: MTT drug resistance determination to conventional chemotherapeutic drugs. Particulars: for IC50: MCF-7/Adr, drug alone, 68 h, MTT; for RF (drug resistant factor): IC50 MCF-7/Adr / IC50 MCF-7. The text has this:
(§1) The following cell lines were used: K562 (human chronic myeloid leukemia cell line) and K562/Adr (a cell line with drug-resistance to chemotherapeutic drugs such as Adriamycin induced by a long-term exposure to a low dosage of Adriamycin); KB (human oral epithelia cell line) and KBv200 (a cell line with drug-resistance to chemotherapeutic drugs such as Vincristine induced by a long-term exposure to a low dosage of Vincristine); MCF-7 (human mammary cancer cell line) and MCF-7/Adr (a cell line with drug-resistance to chemotherapeutic drugs such as Adriamycin induced by a long-term exposure to a low dosage of Adriamycin). All the cell lines mentioned above were purchased from Institute of Hematology, Chinese Academy of Medical Sciences.
Similarly, the multi-drug resistant cell line of MCF-7/Adr is also mainly characterized by the concurrency of multiple resistant mechanisms including the increased expression of P-gp and Bcl-2 family proteins, and the enhanced activity of glyoxalase I, etc.
(§2) Half-inhibitory concentration (IC50) was calculated by the GraphPad Prism software (San Diego, Calif.). Drug reaction was analyzed by Sigmoldal non-linear regression model.
(§3) The cells at logarithmic phase were collected and added into RPMI 1640 medium (containing 10% fetal bovine serum) to prepare a cell suspension. Then the cell suspension was plated onto a 96-well plate at 100 μl per well (1×10^4 cell/well). Adriamycin, Vincristine, Taxol, cisplatin of different concentration gradients were directly added to the semi-suspending cells (K562 and K562/Adr). The adherent cells were cultured for 24 hours after inoculation so that they could adhere completely, and then the drugs mentioned above in different concentrations were added. There were six parallel repeated wells for every concentration gradient. The medium was added up to a final volume of 200 μl per well. The cells were cultured at the condition of 37° C., saturated humidity, 5% CO2 for 68 hours. 50 μl MTT (2 mg/mL) per well was added. The 96-well plate was centrifuged and the supernatant was removed. Then 120 μl DMSO per well was added and vibrated by vibrator. The OD value was determined at a wavelength of 590 nm by enzyme labeling instrument after the crystal was dissolved completely.
(§4) The calculating method: IC50=drug concentration when the inhibitory rate was 50%.
(§5) Drug resistant factor (RF)=the IC50 of the drug resistant cells/the IC50 of the sensitive cells.

Another experiment has as its system MCF-7. The description is as above. The following applies: 68 h.
Excerpt: as §1, §2, §3, §4, §5

For a further experiment, the system named is KB. The experiment is described as above. The following applies: drug alone, 68 h.
Excerpt: as §1, §2, §3, §4, §5

The next experiment has as its system K562. The description is as above. Particulars: K562, drug alone, 68 h.
Excerpt: as §1, §2, §3, §4, §5

In the next experiment the test system is K562/Adr. The experiment is described as above. The following applies: for IC50: K562/Adr, drug alone, 68 h, MTT; for RF (drug resistant factor): IC50 K562/Adr / IC50 K562.
Excerpt: as §1
The multi-drug resistant cell line of K562/Adr is mainly characterized by the concurrency of multiple resistant mechanisms including the increased expression of P-gp and Bcl-2 family proteins, and the enhanced activity of glyoxalase I, etc. K562/Adr is resistant to Adriamycin 20 folds more than K562, and cross-resistant to Vincristine, Daunomycin, Mitoxantrone, Taxol, etc.
as §2, §3, §4, §5

The next experiment concerns KBv200 cells. Kind of experiment: Sensitizing effect of PA to conventional chemotherapeutic drugs (MTT). The following applies: KBv200, drug alone, 68 h; for IC50: Homo sapiens, read-out: IC50 of anti-tumor drug, Ctrl (without PA). Here is the method: (§6) The cells at logarithmic phase were collected and added into RPMI 1640 medium (containing 10% fetal bovine serum) to make cell suspensions. The cell suspension was added to 96-well plate at 100 μl per well, and the cell number was 2×10^3 (suspending cells) or 1×10^3 (adherent cells) per well. After inoculation, the suspending cells were adapted for half an hour on the plate and the adherent cells were cultivated to allow adhesion before the drugs were added. The control groups (Ctrl) were added with anti-tumor drugs but without PA. The drug concentration of each PA group was 10 μg/mL. The concentrations of chemotherapeutic drugs increased from 0.001 μg/mL to 20 μg/mL. There Were six parallel repeated wells for every concentration gradient. RPMI 1640 was added up to a finally volume of 200 μl per well. The cells were cultured at the condition of 37° C., saturated humidity, 5% CO2 for 68 hours. The MTT was determined and the IC50 was calculated as in example 4.
(§7) The formula of resistant factor: Resistant Factor (RF)=the IC50 without sensitizer/the IC50 with sensitizer.

The test system of the next experiment is K562/Adr cells. Described as above. The following applies: drug alone, 68 h; for IC50: Homo sapiens, read-out: IC50 of anti-tumor drug, Ctrl (without PA). The procedure:
as §6, §7

A further experiment concerns MCF-7/Adr cells. The experiment is described as above. Particulars: drug alone, 68 h; for IC50: Homo sapiens, NCI/ADR-RES, read-out: IC50 of anti-tumor drug, Ctrl (without PA). Here is the method:
as §6, §7

In the next experiment the test system is KBv200. Description: MTT drug resistance determination to conventional chemotherapeutic drugs. The following applies: for IC50: KBv200, drug alone, 68 h, MTT; for RF (drug resistant factor): IC50 KBv200 / IC50 KB.
Excerpt: as §1
The multi-drug resistant cell line, of KBv200 is also mainly characterized by the concurrency of multiple resistant mechanisms including the increased expression of P-gp and Bcl-2 family proteins, and the enhanced activity of glyoxalase I, etc. KBv200 is resistant to Vincristine more than 100 folds in comparison with KB, and cross-resistant to […], Daunomycin, Mitoxantrone, Taxol, etc.
as §2, §3, §4, §5

[1] abbreviates: Homo sapiens, NCI/ADR-RES, read-out: IC50.
Setting [2] is: Homo sapiens, MCF7, MCF-7, drug alone, read-out: IC50.

Broadly, the IC50 is the concentration needed to halve the response being measured. Regarding `COc1cccc2c1C(=O)c1c(O)c3c(c(O)c1C2=O)C[C@@](O)(C(=O)CO)C[C@@H]3O[C@H]1C[C@H](N)[C@H](O)[C@H](C)O1` [Adr, doxorubicin], the IC50 in the experiment with MCF-7/Adr (setting [1]) turned out to be 19 ± 0.67 µg/mL (≈ 34.9 µM); in the experiment on MCF-7 (setting [2]) it was 0.312 ± 0.143 µg/mL (≈ 0.574 µM); with KB (Homo sapiens, read-out: IC50) it was 0.49 ± 0.176 µg/mL (≈ 0.902 µM); in the experiment with K562 (Homo sapiens, read-out: IC50) it was 0.215 ± 0.152 µg/mL (≈ 0.396 µM); with K562/Adr (Homo sapiens, read-out: IC50), 14.1 ± 0.35 µg/mL (≈ 25.9 µM); in the experiment on KBv200 cells, 4.39 ± 0.336 µg/mL. For the same molecule, the half-inhibitory concentration (IC50) with K562/Adr cells worked out at 7.67 ± 0.16 µg/mL; in the experiment on MCF-7/Adr cells it was 6.32 ± 0.775 µg/mL; in the experiment on KBv200 (Homo sapiens, read-out: IC50) it was 16.3 ± 1.03 µg/mL (≈ 30 µM). The entries for the “RF (drug resistant factor)” value in the experiment with MCF-7/Adr, with K562/Adr and in the experiment on KBv200 were 59.07, 65.39 and 33.22, respectively. For the same molecule, the “Resistance of K562/Adr relative to K562” value in the experiment on K562/Adr (description of cell line) is recorded as 20 folds.
As to `CC(=O)O[C@H]1C(=O)[C@@]2(C)[C@H]([C@H](OC(=O)c3ccccc3)[C@]3(O)C[C@H](OC(=O)[C@H](O)[C@@H](NC(=O)c4ccccc4)c4ccccc4)C(C)=C1C3(C)C)[C@]1(OC(C)=O)CO[C@@H]1C[C@@H]2O` [Taxol, paclitaxel], the IC50 in the experiment with MCF-7/Adr (setting [1]) was found to be 0.743 ± 0.21 µg/mL (≈ 0.87 µM); in the experiment with MCF-7 (setting [2]) it was 0.0415 ± 0.003 µg/mL (≈ 0.0486 µM); in the experiment on KB (Homo sapiens, read-out: IC50) it was 0.032 ± 0.001 µg/mL (≈ 0.0375 µM); in the experiment on K562 (Homo sapiens, read-out: IC50) it was 0.0247 ± 0.001 µg/mL (≈ 0.0289 µM); in the experiment on K562/Adr (Homo sapiens, read-out: IC50), 0.932 ± 0.092 µg/mL (≈ 1.09 µM); with KBv200 cells, 1.01 ± 0.0421 µg/mL. Also, the IC50 came to 0.8225 ± 0.0073 µg/mL in the experiment with K562/Adr cells; 0.906 ± 0.213 µg/mL with MCF-7/Adr cells; 1.348 ± 0.002 µg/mL (≈ 1.58 µM) with KBv200 (Homo sapiens, read-out: IC50). The “RF (drug resistant factor)” value in the experiment with MCF-7/Adr came out at 17.65; in the experiment on K562/Adr, 37.72; with KBv200, 42.12.
`CC[C@]1(O)C[C@H]2CN(CCc3c([nH]c4ccccc34)[C@@](C(=O)OC)(c3cc4c(cc3OC)N(C=O)[C@H]3[C@@](O)(C(=O)OC)[C@H](OC(C)=O)[C@]5(CC)C=CCN6CC[C@]43[C@@H]65)C2)C1` [VCR, Vincristine]: the IC50 was 18.6 ± 1.75 µg/mL (≈ 22.5 µM) in the experiment with MCF-7/Adr (setting [1]); 0.096 ± 0.014 µg/mL (≈ 0.116 µM) in the experiment on MCF-7 (setting [2]); 0.153 ± 0.092 µg/mL (≈ 0.185 µM) with KB (Homo sapiens, read-out: IC50); 0.218 ± 0.011 µg/mL (≈ 0.264 µM) in the experiment on K562 (Homo sapiens, read-out: IC50); 12.2 ± 0.576 µg/mL (≈ 14.7 µM) in the experiment on K562/Adr (Homo sapiens, read-out: IC50); 10.7 ± 0.992 µg/mL in the experiment on KBv200 cells. Also, the IC50 in the experiment with K562/Adr cells worked out at 12.1 ± 0.349 µg/mL; with MCF-7/Adr cells, 14.1 ± 1.95 µg/mL; in the experiment with KBv200 (Homo sapiens, read-out: IC50), 21.3 ± 1.21 µg/mL (≈ 25.9 µM). The “RF (drug resistant factor)” value is given as 193.75 with MCF-7/Adr, 55.73 with K562/Adr and 139.5 with KBv200.
`N.N.[Cl][Pt][Cl]` [DDP, Cisplatin]: the “RF (drug resistant factor)” value is reported as 11.38 in the experiment on MCF-7/Adr, 4.727 in the experiment on K562/Adr and 14.13 in the experiment on KBv200. Besides, the IC50 in the experiment with MCF-7/Adr is 7.342 ± 0.764 µg/mL; with MCF-7 (MCF-7, drug alone), 0.6453 ± 0.1675 µg/mL; in the experiment on KB it was 0.5509 ± 0.094 µg/mL; in the experiment with K562 it was 0.2274 ± 0.078 µg/mL; with K562/Adr it was 1.075 ± 0.5646 µg/mL; with KBv200 it was 7.785 ± 0.6536 µg/mL. Further, the “IC50 of anti-tumor drug, Ctrl (without PA)” value with KBv200 cells (in µg/mL) was found to be 5.868 ± 0.2438; in the experiment with K562/Adr cells (in µg/mL) it was 5.311 ± 0.4429; in the experiment with MCF-7/Adr cells (in µg/mL) it was 7.708 ± 1.077.
